From ChEMBL document CHEMBL2440076, “New triarylpyrazoles as broad-spectrum anticancer agents: design, synthesis, and biological evaluation” (Eur J Med Chem, 2013)

Assays:
Assay type in all cases: functional
SF-295 = assay: Growth inhibition of human SF295 cells assessed as cell growth at 5X10'-5 M after 48 hrs by sulforhodamine B assay; conditions: SF-295, 48 h, read-out: Activity
OVCAR-8 [1] = assay: Growth inhibition of human OVCAR8 cells assessed as cell growth at 5X10'-9 M after 48 hrs by sulforhodamine B assay; conditions: OVCAR-8, 48 h, read-out: Activity
SF-539 = assay: Growth inhibition of human SF539 cells assessed as cell growth at 5X10'-9 M after 48 hrs by sulforhodamine B assay; conditions: SF-539, 48 h, read-out: Activity
Malme-3M [2] = assay: Growth inhibition of human MALME-3M cells assessed as cell growth at 5X10'-8 M after 48 hrs by sulforhodamine B assay; conditions: read-out: Activity
OVCAR-8 [3] = assay: Growth inhibition of human OVCAR8 cells assessed as cell growth at 5X10'-6 M after 48 hrs by sulforhodamine B assay; conditions: OVCAR-8, 48 h, read-out: Activity
T47D = assay: Growth inhibition of human T47D cells assessed as cell growth at 5X10'-8 M after 48 hrs by sulforhodamine B assay; conditions: read-out: Activity
M14 = assay: Growth inhibition of human M14 cells assessed as cell growth at 5X10'-8 M after 48 hrs by sulforhodamine B assay; conditions: M14, 48 h, read-out: Activity
NCI-H226 = assay: Growth inhibition of human NCI-H226 cells assessed as cell growth at 5X10'-8 M after 48 hrs by sulforhodamine B assay; conditions: NCI-H226, 48 h, read-out: Activity
BT-549 [4] = assay: Growth inhibition of human BT549 cells assessed as cell growth at 5X10'-9 M after 48 hrs by sulforhodamine B assay; conditions: BT-549, 48 h, read-out: Activity
LOX IMVI [5] = assay: Growth inhibition of human LOXIMVI cells assessed as cell growth at 5X10'-5 M after 48 hrs by sulforhodamine B assay; conditions: read-out: Activity
K562 [6] = assay: Growth inhibition of human K562 cells assessed as cell growth at 5X10'-9 M after 48 hrs by sulforhodamine B assay; conditions: K562, 48 h, read-out: Activity
NCI-H522 = assay: Growth inhibition of human NCI-H522 cells assessed as cell growth at 5X10'-7 M after 48 hrs by sulforhodamine B assay; conditions: NCI-H522, 48 h, read-out: Activity
RPMI-8226 = assay: Growth inhibition of human RPMI8226 cells assessed as cell growth at 5X10'-6 M after 48 hrs by sulforhodamine B assay; conditions: RPMI-8226, 48 h, read-out: Activity
MOLT-4 = assay: Growth inhibition of human MOLT4 cells assessed as cell growth at 5X10'-5 M after 48 hrs by sulforhodamine B assay; conditions: MOLT-4, 48 h, read-out: Activity
TK-10 = assay: Growth inhibition of human TK10 cells assessed as cell growth at 5X10'-5 M after 48 hrs by sulforhodamine B assay; conditions: TK-10, 48 h, read-out: Activity
ACHN = assay: Growth inhibition of human ACHN cells assessed as cell growth at 5X10'-5 M after 48 hrs by sulforhodamine B assay; conditions: read-out: Activity
NCI-H460 = assay: Growth inhibition of human NCI-H460 cells assessed as cell growth at 5X10'-7 M after 48 hrs by sulforhodamine B assay; conditions: NCI-H460, 48 h, read-out: Activity
K562 [7] = assay: Growth inhibition of human K562 cells assessed as cell growth at 5X10'-5 M after 48 hrs by sulforhodamine B assay; conditions: K562, 48 h, read-out: Activity
[8] = Growth inhibition of human NCI-ADR-RES cells assessed as cell growth at 5X10'-7 M after 48 hrs by sulforhodamine B assay; conditions: read-out: Activity
OVCAR-3 [9] = assay: Growth inhibition of human OVCAR3 cells assessed as cell growth at 5X10'-6 M after 48 hrs by sulforhodamine B assay; conditions: OVCAR-3, 48 h, read-out: Activity
[10] = Growth inhibition of human HCC2998 cells assessed as cell growth at 5X10'-5 M after 48 hrs by sulforhodamine B assay; conditions: HCC 2998, 48 h, read-out: Activity
MDA-MB-231 [11] = assay: Growth inhibition of human MDA-MB-231 cells assessed as cell growth at 5X10'-5 M after 48 hrs by sulforhodamine B assay; conditions: MDA-MB-231, 48 h, read-out: Activity
Malme-3M [12] = assay: Growth inhibition of human MALME-3M cells assessed as cell growth at 5X10'-9 M after 48 hrs by sulforhodamine B assay; conditions: read-out: Activity
BT-549 [13] = assay: Growth inhibition of human BT549 cells assessed as cell growth at 5X10'-8 M after 48 hrs by sulforhodamine B assay; conditions: BT-549, 48 h, read-out: Activity
OVCAR-8 [14] = assay: Growth inhibition of human OVCAR8 cells assessed as cell growth at 5X10'-8 M after 48 hrs by sulforhodamine B assay; conditions: OVCAR-8, 48 h, read-out: Activity
HT-29 = assay: Growth inhibition of human HT-29 cells assessed as cell growth at 5X10'-7 M after 48 hrs by sulforhodamine B assay; conditions: HT-29, 48 h, read-out: Activity
SK-MEL-2 [15] = assay: Growth inhibition of human SK-MEL-2 cells assessed as cell growth at 5X10'-8 M after 48 hrs by sulforhodamine B assay; conditions: SK-MEL-2, 48 h, read-out: Activity
RXF 393 = assay: Growth inhibition of human RXF393 cells assessed as cell growth at 5X10'-7 M after 48 hrs by sulforhodamine B assay; conditions: RXF 393, 48 h, read-out: Activity
Malme-3M [16] = assay: Growth inhibition of human MALME-3M cells assessed as cell growth at 5X10'-6 M after 48 hrs by sulforhodamine B assay; conditions: read-out: Activity
OVCAR-3 [17] = assay: Growth inhibition of human OVCAR3 cells assessed as cell growth at 5X10'-8 M after 48 hrs by sulforhodamine B assay; conditions: OVCAR-3, 48 h, read-out: Activity
LOX IMVI [18] = assay: Growth inhibition of human LOXIMVI cells assessed as cell growth at 5X10'-6 M after 48 hrs by sulforhodamine B assay; conditions: read-out: Activity
SK-MEL-2 [19] = assay: Growth inhibition of human SK-MEL-2 cells assessed as cell growth at 5X10'-6 M after 48 hrs by sulforhodamine B assay; conditions: SK-MEL-2, 48 h, read-out: Activity
SK-OV-3 = assay: Growth inhibition of human SKOV3 cells assessed as cell growth at 5X10'-5 M after 48 hrs by sulforhodamine B assay; conditions: SK-OV-3, 48 h, read-out: Activity
SN12C = assay: Growth inhibition of human SN12C cells assessed as cell growth at 5X10'-9 M after 48 hrs by sulforhodamine B assay; conditions: read-out: Activity
MDA-MB-231 [20] = assay: Growth inhibition of human MDA-MB-231 cells assessed as cell growth at 5X10'-9 M after 48 hrs by sulforhodamine B assay; conditions: MDA-MB-231, 48 h, read-out: Activity
U-251 = assay: Growth inhibition of human U251 cells assessed as cell growth at 5X10'-8 M after 48 hrs by sulforhodamine B assay; conditions: U-251, 48 h, read-out: Activity
SK-MEL-28 = assay: Growth inhibition of human SK-MEL-28 cells assessed as cell growth at 5X10'-7 M after 48 hrs by sulforhodamine B assay; conditions: SK-MEL-28, 48 h, read-out: Activity

SMILES	growth at 50 µM (SF-295)	growth at 0.005 µM (OVCAR-8 [1])	growth at 0.005 µM (SF-539)	growth at 0.05 µM (Malme-3M [2])	growth at 5 µM (OVCAR-8 [3])	growth at 0.05 µM (T47D)	growth at 0.05 µM (M14)	growth at 0.05 µM (NCI-H226)	growth at 0.005 µM (BT-549 [4])	growth at 50 µM (LOX IMVI [5])	growth at 0.005 µM (K562 [6])	growth at 0.5 µM (NCI-H522)	growth at 5 µM (RPMI-8226)	growth at 50 µM (MOLT-4)	growth at 50 µM (TK-10)	growth at 50 µM (ACHN)	growth at 0.5 µM (NCI-H460)	growth at 50 µM (K562 [7])	growth at 0.5 µM [8]	growth at 5 µM (OVCAR-3 [9])	also measured
COc1cc(-c2nn(-c3cccc(NC(=O)Nc4cc(C(F)(F)F)cc(C(F)(F)F)c4)c3)cc2-c2ccncc2)ccc1Cl	-73%	101%	88%	104%	-6%	104%	107%	90%	103%	-86%	99%	60%	3%	-11%	-86%	-34%	55%	-16%	72%	-69%	growth at 50 µM [10]: -88%; growth at 50 µM (MDA-MB-231 [11]): -85%; growth at 0.005 µM (Malme-3M [12]): 90%; growth at 0.05 µM (BT-549 [13]): 102%; growth at 0.05 µM (OVCAR-8 [14]): 97%; growth at 0.5 µM (HT-29): 70%; growth at 0.05 µM (SK-MEL-2 [15]): 115%; growth at 0.5 µM (RXF 393): 82%; growth at 5 µM (Malme-3M [16]): -47%; growth at 0.05 µM (OVCAR-3 [17]): 109%; growth at 5 µM (LOX IMVI [18]): -90%; growth at 5 µM (SK-MEL-2 [19]): -73%; growth at 50 µM (SK-OV-3): -62%; growth at 0.005 µM (SN12C): 96%; growth at 0.005 µM (MDA-MB-231 [20]): 101%; growth at 0.05 µM (U-251): 94%; growth at 0.5 µM (SK-MEL-28): 89%
O=C(Nc1cccc(-n2cc(-c3ccncc3)c(-c3ccc(Cl)c(O)c3)n2)c1)c1ccc(N2CCOCC2)c(C(F)(F)F)c1	-59%	101%	92%	87%	41%	101%	94%	95%	100%	-53%	96%	92%	9%	-5%	24%	8%	98%	3%	96%	49%	growth at 50 µM [10]: 4%; growth at 50 µM (MDA-MB-231 [11]): -8%; growth at 0.005 µM (Malme-3M [12]): 88%; growth at 0.05 µM (BT-549 [13]): 101%; growth at 0.05 µM (OVCAR-8 [14]): 106%; growth at 0.5 µM (HT-29): 102%; growth at 0.05 µM (SK-MEL-2 [15]): 98%; growth at 0.5 µM (RXF 393): 57%; growth at 5 µM (Malme-3M [16]): -9%; growth at 0.05 µM (OVCAR-3 [17]): 100%; growth at 5 µM (LOX IMVI [18]): 10%; growth at 5 µM (SK-MEL-2 [19]): 34%; growth at 50 µM (SK-OV-3): 36%; growth at 0.005 µM (SN12C): 98%; growth at 0.005 µM (MDA-MB-231 [20]): 96%; growth at 0.05 µM (U-251): 101%; growth at 0.5 µM (SK-MEL-28): 91%
COc1cc(-c2nn(-c3cccc(NC(=O)Nc4cccc(C(F)(F)F)c4)c3)cc2-c2ccncc2)ccc1Cl	-77%	99%	95%	87%	-24%	98%	97%	96%	98%	-86%	99%	65%	-10%	-17%	-7%	-7%	64%	1%	65%	-42%	growth at 50 µM [10]: -79%; growth at 50 µM (MDA-MB-231 [11]): -56%; growth at 0.005 µM (Malme-3M [12]): 86%; growth at 0.05 µM (BT-549 [13]): 96%; growth at 0.05 µM (OVCAR-8 [14]): 101%; growth at 0.5 µM (HT-29): 72%; growth at 0.05 µM (SK-MEL-2 [15]): 98%; growth at 0.5 µM (RXF 393): 74%; growth at 5 µM (Malme-3M [16]): -44%; growth at 0.05 µM (OVCAR-3 [17]): 102%; growth at 5 µM (LOX IMVI [18]): -75%; growth at 5 µM (SK-MEL-2 [19]): -67%; growth at 50 µM (SK-OV-3): 2%; growth at 0.005 µM (SN12C): 97%; growth at 0.005 µM (MDA-MB-231 [20]): 103%; growth at 0.05 µM (U-251): 98%; growth at 0.5 µM (SK-MEL-28): 87%
